In US11446269B2, “Methods of reducing or preventing oxidation of small dense LDL or membrane polyunsaturated fatty acids” (Amarin Pharmaceuticals Ireland Limited, priority 2014, dated 2022):

What was measured:
human sdLDL = test: Copper-induced sdLDL oxidation, TBARS after 2 hr (Example 6); assay type: biochemical; conditions: 10 μM CuSO4, vs vehicle
Experimental: Venous blood was collected from healthy volunteers into vacutainer tubes containing sodium EDTA. Plasma was separated by centrifugation at 3000 g for 25 min at 4° C. and adjusted to a density of 1.020 g/mL with KBr. Triglyceride-rich lipoproteins (TGRL) and LDL fractions were then isolated by sequential centrifugation at 70,000 rpm at 4° C. in a Beckman LE-80 ultracentrifuge using a Beckman 50.4Ti rotor (Beckman Coulter, Inc., Fullerton, Calif.). The TGRL fraction (with a relative density of <1.020) was aspirated from the top of the centrifugate and discarded, leaving an LDL-enriched infranate (with a relative density of 1.020 to 1.063). The plasma LDL fraction was further fractionated into LDL1, LDL2, LDL3, and LDL4 (sdLDL) subfractions with relative densities of 1.020 to 1.035, 1.035 to 1.050, 1.050 to 1.063, and 1.063 to 1.075, respectively. The sdLDL subfraction was retained for additional experimentation. Plasma and lipoprotein fractions were maintained at 4° C. and protected from excessive exposure to light. Prior to oxidation experiments, EDTA was removed from the lipoprotein fraction using PD-10 desalting columns (GE Healthcare, Piscataway N.J.). After equilibration of the column with phosphate buffered saline (PBS), 2.5 mL of the lipoprotein fraction was loaded on the column and the flow-through discarded. The lipoprotein was then eluted with 3 mL of PBS. The LDL fractions were further diluted with PBS to obtain a 100 μg/mL apoB100 concentration.
LDL and sdLDL subfractions (0.6 mL each) were incubated with either 10 μL vehicle (ethanol) or 10 μL drug stock solution for 30 min to 1 hr at 37° C. Oxidation was initiated by the addition of 10 μM CuSO4. After 2 hr, 100 μL aliquots were removed from each subfraction and combined with 1.0 mL thiobarbituric acid (0.5%), 10 μL trichloroacetic acid (5%), 10 μL BHT (5 mg/mL in methanol), and 10 μL EDTA (5 mM). […]. Sample TBARS concentrations were determined spectrophotometrically by measuring sample absorbances against a standard curve derived from the hydrolysis of 1,1,3,3-tetramethoxypropane.

sdLDL = test: Copper-induced sdLDL oxidation (Example 12); assay type: biochemical, human; conditions: 10.0 μM, copper-induced oxidation 1 hour, vs vehicle

CC/C=C\C/C=C\C/C=C\C/C=C\C/C=C\CCCC(=O)O [EPA, cis-5,8,11,14,17-eicosapentaenoic acid]
reduction of TBARS levels (human sdLDL; 1.0 μM): 13%
reduction of TBARS levels (human sdLDL; 10.0 μM): 57%
reduction of sdLDL oxidation (sdLDL): > 90%
